Here are results for 4 compounds from patent US8604087B2, “Composition for treating or preventing amyloid-related diseases comprising 4-O-methylhonokiol” (priority 2008, dated 2013).

As usually defined, the IC50 is the concentration that inhibits the measured activity by half. Broadly, the inhibition is the relative decrease from the control value, in per cent.

For experiment [1], the system named is scopolamine-induced impairment of memory of mice. The experiment is described as follows: Passive avoidance test for evaluating explicit memory. The format is in vivo. Particulars: for Improvement: step-through latency. As for the experimental part: In order to test the effect of 4-O-methylhonokiol on the scopolamine-induced impairment of memory of mice, experiment was performed as follows based on the passive avoidance test animal model described in the literature [Korea Health Research Association, Guidelines for the Testing of Functional Health Foods, 663-701, 2004; Rho et al., Biol. Pharm. Bull., 2005].
A passive avoidance instrument consisting of two chambers separated by a guillotine door was used as the experimental apparatus. One chamber was an illuminated chamber made of transparent acryl boards (30×30×30 cm) and the other was a dark chamber made of black acryl boards (same dimensions). The floor of the dark chamber was equipped with a grid made of aluminum pieces separated by a regular spacing. The grid was connected to an apparatus for delivering electric shocks to the feet of the test animal. A mouse was put into the illuminated chamber and the guillotine door was opened so that the mouse could enter the dark chamber. The acquisition trials were repeated 3 times. On the third run, immediately after the mouse entered the dark chamber, an electric shock was delivered through the aluminum grid (0.1 mA, 5 seconds). Memory test was performed 24 hours after the acquisition trials. The mouse was put into the illuminated chamber, the guillotine door was opened, and the time taken for the mouse to enter the dark chamber was measured (step-through latency). A longer time means better learning ability and memory. 10 mice were tested for each group.

Experiment [2] deals with scopolamine-induced impairment of learning ability of mice. Kind of experiment: Water maze test for evaluating spatial learning ability. It is filed as in vivo, male ICR mice. Particulars: for Improvement: escape distance. The protocol:
In order to test the effect of 4-O-methylhonokiol on the scopolamine-induced impairment of learning ability of mice, experiment was performed as follows based on the water maze test animal model described in the literature [Korea Health Research Association, Guidelines for the Testing of Functional Health Foods, 663-701, 2004; Widy-Tyszkiewicz et al., Biol. Pharm. Bull., 2002]. 5-6 weeks old male ICR mice (20-28 g; Dae Han Biolink, Korea) were raised under controlled lighting (12-hour light-dark cycle) and temperature (22±2° C.) conditions. They were grouped (n=10) and given free access to food and water, in a cage. The mice were accustomed for a week before performing the test.
A round pool 180 cm in diameter and 50 cm in height was filled with water (22±3° C.) to 30 cm in depth. A transparent acryl resin platform (diameter 12 cm) was placed 1.5 cm below the surface of the water. The mice were trained for 6 days, 180 seconds a day (acquisition test). On day 7, retention test was carried out. The mice were forced to swim for 60 seconds by removing the platform. All the behaviors of the mice were recorded using a video camera. Time and distance were measured until the mice climbed onto the platform.
4-O-methylhonokiol (0.5, 1 and 1.5 mg/kg) was dissolved in drinking water and orally administered to the mice, for a week. The comparison group was treated with scopolamine only, and the control group was not treated with any substance.

In the next experiment the test system is Amyloid-β 1-42. Kind of experiment: Inhibition of amyloid-β 1-42 production in mouse brain cortex and hippocampus (amyloid beta 1-42 assay kit). The format is in vivo. Particulars: for Improvement: production amount. As for the experimental part:
After the behavioral pharmacological experiments, the brain cortex and hippocampus were separated from the brain of the mouse, homogenized with RO-PREP protein extraction solution, and centrifuged at 4° C., at 15,000 rpm, for 2 hours. The protein quantity of the supernatant was analyzed with a Bio-Rad protein analysis kit (Bio-Rad). Amyloid-β 1-42 were quantitated using an amyloid beta 1-42 assay kit (Immuno-Biological, Japan).
The protein extract (100 μL) obtained from the brain cortex or hippocampus was put in a coated 96-well plate and incubated at 4° C. overnight. After washing with washing buffer and adding labeled antibody solution, the mixture was incubated at 4° C. for 1 hour in the dark. After washing again and adding chromogen, the mixture was incubated at room temperature for 30 minutes in the dark. Then, after adding stop solution, absorbance was measured at 450 nm. Measurement was made 3 times.

In experiment [3] the target is acetylcholinesterase (Homo sapiens, UniProt P22303). Kind of experiment: Inhibition of acetylcholinesterase activity by honokiol and 4-O-methylhonokiol (modified Ellman's method). The settings on record: for IC50: 5 minutes of reaction at 25° C., pH 8.0; for inhibition at 0.01 µM: concentration 10 nM; for inhibition at 0.1 µM: concentration 100 nM. The format is biochemical. The protocol:
Acetylcholinesterase activity was analyzed by the modified Ellman's method [Ellman G. L., et al., Biochem. Pharmacol. 7, 88-95, 1961]. After adding 50 mM phosphate buffer (30 μL, pH 8.0) to a 96-well plate, different concentrations of 4-O-methylhonokiol or honokiol was added, 10 μL per well, and acetylcholinesterase was added, 10 μL per well. Then, 50 mM phosphate buffer (50 μL, pH 8.0) containing 0.5 mM acetylthiocholine iodide and 1 mM 5,5′-dithiobis(2-nitrobenzoic acid) was added as a substrate for the enzyme. After 5 minutes of reaction at 25° C., absorbance was measured at 412 nm. The inhibition of acetylcholinesterase activity was calculated by the following equation. Measurement was made 3 times. Inhibition of acetylcholinesterase activity (%)=[…]
ODb: absorbance of untreated reaction solution at 412 nm;
ODs: absorbance of treated reaction solution at 412 nm; and
ODc: absorbance of control at 412 nm.
In general terms: In Ellman's method for cholinesterases, released thiocholine reacts with DTNB.

Experiment [4] concerns the target T1, Acetylcholinesterase (Mus musculus, UniProt P21836).
T1 construct: the brain cortex and hippocampus were separated from the brain of the mouse, homogenized with RO-PREP protein extraction solution; from tissue; host or cells: mouse brain cortex and hippocampus
T1 sequence (P21836 32-614): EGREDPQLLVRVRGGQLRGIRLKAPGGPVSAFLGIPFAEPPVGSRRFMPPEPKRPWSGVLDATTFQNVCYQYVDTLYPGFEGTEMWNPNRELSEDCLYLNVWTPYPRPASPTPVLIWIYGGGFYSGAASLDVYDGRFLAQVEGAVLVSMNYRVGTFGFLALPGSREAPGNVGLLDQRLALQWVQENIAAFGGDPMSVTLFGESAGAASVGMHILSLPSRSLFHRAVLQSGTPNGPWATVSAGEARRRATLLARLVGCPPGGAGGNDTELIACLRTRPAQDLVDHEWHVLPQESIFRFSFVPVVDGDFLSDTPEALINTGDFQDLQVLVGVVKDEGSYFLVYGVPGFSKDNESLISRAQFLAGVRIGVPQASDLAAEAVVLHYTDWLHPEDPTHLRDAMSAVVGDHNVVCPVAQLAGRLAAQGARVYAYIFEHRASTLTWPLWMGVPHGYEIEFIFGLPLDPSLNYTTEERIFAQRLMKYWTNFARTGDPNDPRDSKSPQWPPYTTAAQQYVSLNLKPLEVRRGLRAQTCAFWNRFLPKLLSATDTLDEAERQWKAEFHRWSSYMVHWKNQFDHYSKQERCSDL
The experiment is described as follows: Acetylcholinesterase activity in mouse brain cortex and hippocampus after the behavioral experiments (modified Ellman's method). It is filed as in vivo. Details: Enzyme activity: unit not given beside the values. Particulars: for Improvement: enzyme activity. The protocol: After the behavioral pharmacological experiments, the brain cortex and hippocampus were separated from the brain of the mouse, homogenized with RO-PREP protein extraction solution (iNtRON Biotechnology), and centrifuged at 4° C., at 15,000 rpm, for 2 hours. The protein quantity of the supernatant was analyzed with a Bio-Rad protein analysis kit (Bio-Rad). Acetylcholinesterase activity was analyzed by the modified Ellman's method.
Cell lysate was put in a 96-well plate, 10 μL per well. After adding reaction buffer [190 μL, 0.01% DTNB, 0.02% acetylthiocholine and 0.1 mM isoOMPA in 50 mM Tris-HCl (pH 8.0, 0.1 M NaCl, 20 mM MgCl2)], measurement was made at 37° C., at 405 nm, for 5 minutes. After 10 minutes of reaction, measurement was made again at the same wavelength. After adding different concentrations of acetylcholinesterase and treating with standard buffer [0.01% DTNB and 0.02% 0.1 mM isoOMPA in 50 mM Tris-HCl (pH 8.0, 0.1 M NaCl, 20 mM MgCl2)], measurement was made at 37° C., at 405 nm, for 5 minutes. Activity was calculated from the difference of absorbance at the first and second measurements.

The mark [5] stands for this setting: scopolamine 1 mg/kg + 4-O-methylhonokiol 0.5 mg/kg.
Where [6] appears, read: scopolamine 1 mg/kg + 4-O-methylhonokiol 1 mg/kg.
The mark [7] stands for this setting: scopolamine 1 mg/kg + 4-O-methylhonokiol 1.5 mg/kg.
Setting [8] is: brain cortex, scopolamine 1 mg/kg + 4-O-methylhonokiol 0.5 mg/kg.
Where [9] appears, read: brain cortex, scopolamine 1 mg/kg + 4-O-methylhonokiol 1 mg/kg.
[10] abbreviates: brain cortex, scopolamine 1 mg/kg + 4-O-methylhonokiol 1.5 mg/kg.
[11] abbreviates: hippocampus, scopolamine 1 mg/kg + 4-O-methylhonokiol 0.5 mg/kg.
Where [12] appears, read: hippocampus, scopolamine 1 mg/kg + 4-O-methylhonokiol 1 mg/kg.
Setting [13] is: hippocampus, scopolamine 1 mg/kg + 4-O-methylhonokiol 1.5 mg/kg.

acetylcholinesterase, sequence (P22303 32-614, species assumed): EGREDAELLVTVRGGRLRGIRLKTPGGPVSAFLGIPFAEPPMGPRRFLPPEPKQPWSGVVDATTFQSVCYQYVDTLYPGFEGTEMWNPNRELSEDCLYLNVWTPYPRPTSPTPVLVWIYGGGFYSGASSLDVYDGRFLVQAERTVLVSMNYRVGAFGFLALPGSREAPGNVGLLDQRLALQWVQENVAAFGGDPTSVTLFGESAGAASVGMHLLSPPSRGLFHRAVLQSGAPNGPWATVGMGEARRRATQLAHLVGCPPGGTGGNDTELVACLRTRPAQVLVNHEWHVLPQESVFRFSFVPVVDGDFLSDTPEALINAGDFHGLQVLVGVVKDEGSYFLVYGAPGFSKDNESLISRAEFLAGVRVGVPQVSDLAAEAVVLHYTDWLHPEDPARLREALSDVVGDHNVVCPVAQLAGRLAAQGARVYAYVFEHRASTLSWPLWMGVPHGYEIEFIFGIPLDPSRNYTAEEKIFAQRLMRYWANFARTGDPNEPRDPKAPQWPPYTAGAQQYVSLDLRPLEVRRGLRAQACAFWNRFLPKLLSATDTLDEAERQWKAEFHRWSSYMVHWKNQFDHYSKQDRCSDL

In turn, `CN1[C@@H]2C[C@@H](OC(=O)[C@H](CO)c3ccccc3)C[C@H]1[C@@H]1O[C@@H]12` [scopolamine, Scopolamine, reference compound] came in with a Step-through latency in experiment [1] (comparison group, scopolamine 1 mg/kg only (control group 34.3)) of 14.6 s. In addition, in experiment [2] (comparison group, scopolamine 1 mg/kg only (control group 232)), the Escape distance is listed as 884 cm.

For β-amyloid [reference compound], the Production amount is on record as 28.1 with Amyloid-β 1-42 (amyloid-β 1-42, brain cortex, comparison group, β-amyloid 1 mg/kg only (control group 23.5)) and 25.1 in the experiment with Amyloid-β 1-42 (amyloid-β 1-42, hippocampus, comparison group, β-amyloid 1 mg/kg only (control group 16.2)).

In the case of `C=CCc1ccc(O)c(-c2ccc(O)c(CC=C)c2)c1` [Honokiol], on acetylcholinesterase [3], the IC50 amounted to 250 nM, the inhibition at 0.01 µM was 17% and the inhibition at 0.1 µM came to 43%. The compound also yielded an inhibition at 1 µM against acetylcholinesterase [3] (concentration 1000 nM) of 74%.

Turning to `C=CCc1ccc(O)c(-c2ccc(OC)c(CC=C)c2)c1` [4-O-methylhonokiol], the Production amount in the experiment on Amyloid-β 1-42 (amyloid-β 1-42, brain cortex, β-amyloid 1 mg/kg + 4-O-methylhonokiol 0.5 mg/kg) turned out to be 26.8; in the experiment with Amyloid-β 1-42 (amyloid-β 1-42, brain cortex, β-amyloid 1 mg/kg + 4-O-methylhonokiol 1 mg/kg) it was 24.3; with Amyloid-β 1-42 (amyloid-β 1-42, brain cortex, β-amyloid 1 mg/kg + 4-O-methylhonokiol 1.5 mg/kg), 23.1; with Amyloid-β 1-42 (amyloid-β 1-42, hippocampus, β-amyloid 1 mg/kg + 4-O-methylhonokiol 0.5 mg/kg), 22.7; in the experiment on Amyloid-β 1-42 (amyloid-β 1-42, hippocampus, β-amyloid 1 mg/kg + 4-O-methylhonokiol 1 mg/kg), 18.2; in the experiment on Amyloid-β 1-42 (amyloid-β 1-42, hippocampus, β-amyloid 1 mg/kg + 4-O-methylhonokiol 1.5 mg/kg), 16.5. The Improvement was 28.3% in the experiment with Amyloid-β 1-42 (brain cortex, β-amyloid 1 mg/kg + 4-O-methylhonokiol 0.5 mg/kg); 82.6% in the experiment on Amyloid-β 1-42 (brain cortex, β-amyloid 1 mg/kg + 4-O-methylhonokiol 1 mg/kg); 100% in the experiment with Amyloid-β 1-42 (brain cortex, β-amyloid 1 mg/kg + 4-O-methylhonokiol 1.5 mg/kg); 33.3% in the experiment on Amyloid-β 1-42 (hippocampus, β-amyloid 1 mg/kg + 4-O-methylhonokiol 0.5 mg/kg); 77.8% in the experiment with Amyloid-β 1-42 (hippocampus, β-amyloid 1 mg/kg + 4-O-methylhonokiol 1 mg/kg); 95.6% in the experiment on Amyloid-β 1-42 (hippocampus, β-amyloid 1 mg/kg + 4-O-methylhonokiol 1.5 mg/kg). Further, the Improvement is 37.1% in experiment [1] (setting [5]); 70% in experiment [1] (setting [6]); 95% in experiment [1] (setting [7]); 48.8% in experiment [2] (setting [5]); 88.6% in experiment [2] (setting [6]); 91.8% in experiment [2] (setting [7]). Further, the Improvement at Acetylcholinesterase [4] (setting [8]) worked out at 42.8%; on Acetylcholinesterase [4] (setting [9]), 70.3%; on Acetylcholinesterase [4] (setting [10]), 92.8%; on Acetylcholinesterase [4] (setting [11]) it was 72.7%; on Acetylcholinesterase [4] (setting [12]), 93.2%; on Acetylcholinesterase [4] (setting [13]) it was 97.7%. Also, the Step-through latency in experiment [1] (scopolamine 1 mg/kg + 4-O-methylhonokiol 0.5 mg/kg, 24 hours after acquisition trials) came out at 21.9 s; in experiment [1] (scopolamine 1 mg/kg + 4-O-methylhonokiol 1 mg/kg, 24 hours after acquisition trials), 28.3 s; in experiment [1] (scopolamine 1 mg/kg + 4-O-methylhonokiol 1.5 mg/kg, 24 hours after acquisition trials), 33.5 s. Further, the Escape distance in experiment [2] (scopolamine 1 mg/kg + 4-O-methylhonokiol 0.5 mg/kg oral in drinking water for a week, mice) was 566 cm; in experiment [2] (scopolamine 1 mg/kg + 4-O-methylhonokiol 1 mg/kg oral in drinking water for a week, mice), 305 cm; in experiment [2] (scopolamine 1 mg/kg + 4-O-methylhonokiol 1.5 mg/kg oral in drinking water for a week, mice), 284 cm. Moreover, the Enzyme activity at Acetylcholinesterase [4] (setting [8]) was found to be 30.2; at Acetylcholinesterase [4] (setting [9]), 24.1; at Acetylcholinesterase [4] (setting [10]), 19.1; at Acetylcholinesterase [4] (setting [11]), 14.1; on Acetylcholinesterase [4] (setting [12]) it was 13.2; on Acetylcholinesterase [4] (setting [13]), 13. The same compound showed a half-maximal inhibitory concentration (IC50) against acetylcholinesterase [3] of 1.2 nM. In addition, on acetylcholinesterase [3] (concentration 1 nM), the inhibition at 0.001 µM was 47%. Moreover, the inhibition at 0.01 µM at acetylcholinesterase [3] was found to be 68%. In addition, at acetylcholinesterase [3], the inhibition at 0.1 µM was determined as 78%. Moreover, the “times better inhibition ability of acetylcholinesterase activity than honokiol” value at acetylcholinesterase [3] (ratio of IC50 values) is recorded as “about 200 times”.
